The text below walks through data of US6369070B1, “Methods for inhibiting mrp1” (Eli Lilly and Company, priority 1998, dated 2002).

Each structure is given as a SMILES string.

Data set [1] has as its target T1, MRP1 (Homo sapiens, UniProt P33527).
T1 construct: HL60/ADR and HL60/VCR are continuous cell lines, which were selected for doxorubicin and vincristine resistance respectively; endogenous in cells; host or cells: HL60/ADR (doxorubicin-selected HL60 human acute myeloblastic leukemia cells)
Nature of the data set: Reversal of MRP1-mediated doxorubicin resistance in HL60/ADR cells. To be noted: HL60/ADR cells (printed EL60/ADR), oncolytic alone at the tested concentration. In kind it is cell-based. As to the method: (§1) Assay for Reversal of MRP1-Mediated Doxorubicin Resistance and MDR1-Mediated Vincristine Resistance: HL60/ADR and HL60/VCR are continuous cell lines, which were selected for doxorubicin and vincristine resistance respectively by culturing HL60, a human acute myeloblastic leukemia cell line, in increasing concentrations of doxorubicin or vincristine until a highly resistant variant was attained.
(§2) HL60/ADR and HL60/VCR cells were grown in RPMI 1640 (Gibco) containing […] (FBS) and 250 μg/ml GENTAMICIN™ (Sigma). Cells were harvested; washed twice with assay medium (same as culture media); counted; and diluted to 2×10^5 cells/ml in assay medium. Fifty microliters of cells were aliquoted into wells of a 96 well tissue culture plate. One column of each 96 well plate served as a negative control and received assay medium containing no cells.
(§3) Test compounds and reference compounds were dissolved in dimethyl sulfoxide (DMSO) at a concentration of 5 mM. Samples were diluted to 20 μM in assay medium and 25 μl of each test compound was added to 6 wells. Assay standards were run in quadruplicate. Twenty-five microliters of 0.4% DMSO was added to four wells as a solvent control.

Data set [2] addresses T2, MDR1 (Homo sapiens, UniProt P08183).
T2 construct: HL60/ADR and HL60/VCR are continuous cell lines, which were selected for doxorubicin and vincristine resistance respectively; endogenous in cells; host or cells: HL60/VCR (vincristine-selected HL60 human acute myeloblastic leukemia cells)
The data set can be described thus: Reversal of MDR1-mediated vincristine resistance in HL60/VCR cells. The data set is classed as cell-based. The note with it: oncolytic alone at the tested concentration. The method, then:
as §1, §2, §3

T2 sequence (P08183 whole entry): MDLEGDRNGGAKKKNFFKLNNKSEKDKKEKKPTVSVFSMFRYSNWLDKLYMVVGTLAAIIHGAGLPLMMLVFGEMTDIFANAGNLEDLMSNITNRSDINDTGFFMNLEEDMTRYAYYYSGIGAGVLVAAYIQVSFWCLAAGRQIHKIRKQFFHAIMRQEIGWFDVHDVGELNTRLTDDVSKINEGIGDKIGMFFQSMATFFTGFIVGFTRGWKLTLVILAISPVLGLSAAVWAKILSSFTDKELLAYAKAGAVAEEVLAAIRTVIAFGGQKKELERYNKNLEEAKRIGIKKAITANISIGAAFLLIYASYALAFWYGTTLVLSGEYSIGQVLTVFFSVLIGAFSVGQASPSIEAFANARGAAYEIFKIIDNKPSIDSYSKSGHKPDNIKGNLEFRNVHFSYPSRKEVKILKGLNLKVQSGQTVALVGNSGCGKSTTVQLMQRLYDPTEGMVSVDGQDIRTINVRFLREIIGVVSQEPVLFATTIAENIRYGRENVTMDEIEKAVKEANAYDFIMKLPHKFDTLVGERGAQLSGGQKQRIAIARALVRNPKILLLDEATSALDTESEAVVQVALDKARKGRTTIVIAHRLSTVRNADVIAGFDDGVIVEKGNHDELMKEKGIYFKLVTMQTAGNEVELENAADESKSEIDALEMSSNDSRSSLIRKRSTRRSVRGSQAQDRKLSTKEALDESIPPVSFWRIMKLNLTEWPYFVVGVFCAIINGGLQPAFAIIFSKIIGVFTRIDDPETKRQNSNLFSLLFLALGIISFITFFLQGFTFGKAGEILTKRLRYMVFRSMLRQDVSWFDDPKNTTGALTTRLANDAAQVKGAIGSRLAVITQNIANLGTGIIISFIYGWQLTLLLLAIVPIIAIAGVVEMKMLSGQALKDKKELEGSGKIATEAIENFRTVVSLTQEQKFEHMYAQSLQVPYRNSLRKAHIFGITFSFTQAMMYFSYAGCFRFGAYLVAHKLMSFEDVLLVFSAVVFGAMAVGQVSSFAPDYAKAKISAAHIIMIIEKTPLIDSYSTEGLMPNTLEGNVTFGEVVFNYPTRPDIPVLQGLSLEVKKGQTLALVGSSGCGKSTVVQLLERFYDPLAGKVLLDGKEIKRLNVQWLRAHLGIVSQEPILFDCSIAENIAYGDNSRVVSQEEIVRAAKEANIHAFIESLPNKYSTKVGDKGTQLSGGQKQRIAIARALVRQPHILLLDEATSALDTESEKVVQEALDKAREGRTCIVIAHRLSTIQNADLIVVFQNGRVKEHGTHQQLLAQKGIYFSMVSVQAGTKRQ
T1 sequence (P33527 whole entry): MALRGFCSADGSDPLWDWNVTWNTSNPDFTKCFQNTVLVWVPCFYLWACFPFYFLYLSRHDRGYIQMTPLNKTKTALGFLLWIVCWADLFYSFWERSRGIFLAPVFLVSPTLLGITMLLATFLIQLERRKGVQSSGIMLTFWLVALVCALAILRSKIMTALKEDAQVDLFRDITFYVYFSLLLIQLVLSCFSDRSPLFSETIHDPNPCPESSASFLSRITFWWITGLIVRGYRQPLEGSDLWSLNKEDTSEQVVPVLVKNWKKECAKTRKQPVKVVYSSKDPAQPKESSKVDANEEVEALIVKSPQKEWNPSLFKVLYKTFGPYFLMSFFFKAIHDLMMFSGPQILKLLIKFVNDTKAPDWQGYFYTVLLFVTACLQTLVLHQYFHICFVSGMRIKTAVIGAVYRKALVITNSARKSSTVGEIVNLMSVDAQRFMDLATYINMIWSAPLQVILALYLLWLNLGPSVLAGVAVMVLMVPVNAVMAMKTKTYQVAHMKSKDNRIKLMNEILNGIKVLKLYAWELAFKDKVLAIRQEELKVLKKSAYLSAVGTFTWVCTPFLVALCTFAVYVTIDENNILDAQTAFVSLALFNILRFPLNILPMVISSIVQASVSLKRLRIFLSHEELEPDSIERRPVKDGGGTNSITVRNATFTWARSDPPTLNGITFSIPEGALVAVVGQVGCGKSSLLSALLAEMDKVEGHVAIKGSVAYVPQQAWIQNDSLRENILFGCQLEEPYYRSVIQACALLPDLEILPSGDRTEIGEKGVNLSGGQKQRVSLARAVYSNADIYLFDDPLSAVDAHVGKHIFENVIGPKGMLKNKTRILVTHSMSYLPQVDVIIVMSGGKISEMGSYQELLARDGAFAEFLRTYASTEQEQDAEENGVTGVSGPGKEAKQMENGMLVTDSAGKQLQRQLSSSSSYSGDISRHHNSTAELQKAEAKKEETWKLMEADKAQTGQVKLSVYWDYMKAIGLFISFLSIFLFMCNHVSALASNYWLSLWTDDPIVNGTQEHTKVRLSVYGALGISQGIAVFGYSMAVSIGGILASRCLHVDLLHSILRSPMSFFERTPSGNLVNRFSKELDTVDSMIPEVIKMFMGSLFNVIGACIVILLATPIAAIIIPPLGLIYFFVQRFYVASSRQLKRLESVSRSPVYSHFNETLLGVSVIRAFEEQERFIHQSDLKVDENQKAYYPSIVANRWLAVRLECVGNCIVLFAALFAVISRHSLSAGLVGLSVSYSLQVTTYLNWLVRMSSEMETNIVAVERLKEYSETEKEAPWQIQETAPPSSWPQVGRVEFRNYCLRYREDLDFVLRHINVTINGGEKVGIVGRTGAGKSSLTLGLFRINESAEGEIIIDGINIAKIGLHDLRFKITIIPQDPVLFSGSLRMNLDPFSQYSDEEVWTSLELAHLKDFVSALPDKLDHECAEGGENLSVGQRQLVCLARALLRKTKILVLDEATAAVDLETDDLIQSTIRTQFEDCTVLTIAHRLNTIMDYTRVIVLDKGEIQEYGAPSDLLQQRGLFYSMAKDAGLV

On to `COc1cccc2c1C(=O)c1c(O)c3c(c(O)c1C2=O)C[C@@](O)(C(=O)CO)C[C@@H]3O[C@H]1C[C@H](N)[C@H](O)[C@H](C)O1` [doxorubicin], for which the “inhibition of cell growth by the oncolytic alone” value in data set [1] and in data set [2] was “does not usually inhibit the growth” each time.
